Consider one molecule from patent US20010018445A1, “Pharmaceutical composition for the treatment of hepatocellular carcinoma” (TTY BIOPHARM COMPANY LIMITED, priority 2000, published 2001).

The test system of data set [1] is hepatocellular carcinoma. Type of data set: in vivo, human. Here is the method: FIGS. 1-4 show computerized abdominal tomography of a patient, before and after, treatment with thalidomide. […] The serum level of alpha-fetoprotein in the patient is 4335 μg/ml. […] The massive type index lesion at the left hepatic lobe shown in FIG. 3 has been reduced to the size of 3 cm×3 cm. The serum level of alpha-fetoprotein in the patient is 1501 μg/ml. In addition, the scan show the occurrence of ascitic fluid.
A patient weighted 55 kg with medical history of hepatitis C was diagnosed with hepatocellular carcinoma in December 1998 and treated with transcatheter arterial chemoembolization. They were treated with transcatheter arterial chemoembolization again in March and June 1999. According to the computerized abdominal tomography and gastrointestinal track barium enema, hepatocellular carcinoma invasion of the right colon and duodenum was doubted. The patient was treated with radiation on the right liver lobe during July to September 1999. After one-month of treatment, the serum level of alpha-fetoprotein in the patient increased from 105 μg/ml, before treatment, to 535 μg/ml. […] The patient was treated with a forth transcatheter arterial chemoembolization. The serum level of alpha-fetoprotein in the patient was increased to 1572 μg/ml.
The serum level of alpha-fetoprotein in the patient was up to 4335 μg/ml. The liver function exacerbated that the total bilirubin was […], GOT/GPT was 253/115 IU and alkaline phosphase (ALP) was 239 unit/l. […] A capsule containing 100 mg of thalidomide was orally administered to the patient twice daily during the thalidomide treatment. […] However, ascitic fluid was found. The abdominal paracentesis evidenced that ascitic fluid was caused by spontaneous bacterial peritonitis. […] The patient was then administered with antibiotics for the treatment of spontaneous bacterial peritonitis. The patient was still treated with thalidomide to the present.

For data set [2], the system named is hepatocellular carcinoma. Put plainly: Thalidomide treatment of two patients with metastatic and locally advanced hepatocellular carcinoma (Example 3). Type of data set: in vivo, human. The conditions noted are these: thalidomide 100 mg twice daily. Here is the method: Thalidomide was administered 100 mg twice daily. They were subjected to serum alpha-fetoprotein test every 2-4 weeks and computed tomography or magnetic resonance image examination every 4-8 weeks.

For data set [3], the system named is hepatocellular carcinoma. Description: Clinical observation of thalidomide in hepatocellular carcinoma, summary statement on side effects. Type of data set: in vivo, human. The conditions noted are these: patients with metastatic hepatocellular carcinoma or where local treatment has failed. The source says:
The subject invention utilizes thalidomide to treat metastatic hepatocellular carcinoma and hepatocellular carcinoma, where local treatment has failed.
The therapeutic efficacy of the pharmaceutical composition of the subject invention comprising thalidomide on the treatment of hepatocellular carcinoma has been supported by clinical observation as illustrated in the following examples.

The conditions of data set [4]: in water, methanol, ethanol or acetone; cited from earlier work.
Data set [5] deals with tumor necrotic factor-alpha (TNF-I). The conditions noted are these: Journal of Infectious Diseases, 1993, 168, p. 408-414; cited from earlier work.
Data set [6] has as its system basic fibroblast growth factor-induced angiogenesis. The conditions noted are these: Anti-Cancer Drugs, 1996, 7, p.339-343; cited from earlier work.
In a further data set the test system is angiogenesis. The conditions noted are these: U.S. Pat. Nos. 5,593,990 and 5,629,327; cited from earlier work.
The conditions of data set [7]: women who took thalidomide in the first trimester of pregnancy; cited from earlier work.
The mark [8] stands for this setting: after treatment with thalidomide.

As to `O=C1CCC(N2C(=O)c3ccccc3C2=O)C(=O)N1` (stereo not shown) [thalidomide, 2-(2,6-dioxo-3-piperidinyl)-1H-isoindolle-1,3(2H)-dione], the “hepatocellular carcinoma of the two liver lobes on follow-up MRI” value with hepatocellular carcinoma [1] (after four weeks of treatment) is listed as “significantly remitted”. For the same molecule, in the data set with hepatocellular carcinoma [1] (setting [8]), the “most diffused hepatocellular carcinoma infiltrating left and right hepatic lobes (computerized abdominal tomography)” value was “disappear”; the “variation of the serum level of alpha-fetoprotein (FIG. 5)” value is “significantly decreased”. In addition, in the data set on hepatocellular carcinoma [1] (after two weeks of treatment, 100 mg orally twice daily), the “right upper quadrant tenderness” value is recorded as “significantly relieved”. The “alkaline phosphase (ALP)” value in the data set on hepatocellular carcinoma [1] (human, in vivo) stood at 233 unit/l. For the same molecule, the “serum level of alpha-fetoprotein” value in the data set on hepatocellular carcinoma [1] (one patient, 100 mg thalidomide capsule orally twice daily, after four weeks, 4335 μg/ml before treatment) came out at 1501 µg/mL. The “serum alpha-fetoprotein level (FIGS. 6 and 7)” value in the data set on hepatocellular carcinoma [2] is reported as “significant reduced”. Further, the “side effects, such as arrest of bone marrow or hepatotoxicity” value with hepatocellular carcinoma [3] is “without significant side effects”. Besides, the solubility entry in data set [4] was “sparingly soluble”. In addition, the “inhibition of tumor necrotic factor-alpha (TNF-I)” value in data set [5] was “could effectively inhibit”. Besides, the “inhibition of basic fibroblast growth factor-induced angiogenesis” value in data set [6] is reported as “could effectively inhibit”. Besides, the inhibition of angiogenesis entry in the data set on angiogenesis is reported as “could effectively inhibit”. In addition, the teratogenic effect result in data set [7] is “would deliver terata, such as phocomelia”.
